The values that follow come from patent US10610863B2, “Automatic microfluidic system for antibiotic susceptibility testing and method of operating thereof” (NATIONAL TSING HUA UNIVERSITY, priority 2016, dated 2020).

The subject of assay [1] is vancomycin-intermediate Staphylococcus aureus (VISA). Kind of assay: Microfluidic system of Embodiment 2 combination susceptibility testing (Test 6). The assay is classed as cell-based. Conditions: for minimum inhibitory concentration alone (denominator of the FIC equation): antibiotic alone; for minimum inhibitory concentration in combination (vancomycin + ceftazidime): colorimetric, 24 hours of incubation at 37° C.
Procedure: In Test 6, vancomycin-intermediate Staphylococcus aureus (VISA) is designed as a bacterial suspension to be tested, and two antibiotic solutions, that is, vancomycin and ceftazidime, with different concentrations are prepared. In details, the two antibiotic solutions are transported, separately, to each of the second reaction chambers 124a′, 124b′, 124c′, 124d′, 124e′, 124f′, 124g′, 124h′, 124i′, 124j′, 124k′ to mix with the broth and the bacterial suspension to be tested. Then, concentrations of vancomycin of the second reaction chambers 124a′, 124b′, 124c′, 124d′, 124e′, 124f′, 124g′, 124h′, 124i′, 124j′, 124k′ are 4 μg/mL, 6 μg/mL, 4 μg/mL, 4 μg/mL, 4 μg/mL, 0 μg/mL, 6 μg/mL, 6 μg/mL, 2 μg/mL, 2 μg/mL and 2 μg/mL, respectively. Furthermore, concentrations of ceftazidime of the second reaction chambers 124a′, 124b′, 124c′, 124d′, 124e′, 124f′, 124g′, 124h′, 124i′, 124j′, 124k′ are 2 μg/mL, 2 μg/mL, 4 μg/mL, 6 μg/mL, 0 μg/mL, 4 μg/mL, 6 μg/mL, 4 μg/mL, 6 μg/mL, 4 μg/mL and 2 μg/mL, respectively. In addition, a proper pH indicator, such as phenol red, is added to the broth in Test 6. After incubation at 37° C. for 24 hours, results can be visually observed.
In particular, incubation times from FIG. 10(a) to FIG. 10(d) are 0 hour, 10 hours, 17 hours and 24 hours.
Then, a fractional inhibitory concentration index of the two antibiotic solutions for the vancomycin-intermediate Staphylococcus aureus can be derived from the following equation: FICindex=FICA+FICB. FICA is calculated as a quotient between the minimum inhibitory concentration of vancomycin in combination and the minimum inhibitory concentration of vancomycin alone, and FICB is calculated as a quotient between the minimum inhibitory concentration of ceftazidime in combination and the minimum inhibitory concentration of ceftazidime alone. In particular, the combination can be determined as synergic when the fractional inhibitory concentration index is ≤0.5, as antagonistic when the fractional inhibitory concentration index is >4. The results between synergy and antagonistic tendency are defined as additive or indifferent.

Assay [2] concerns standard strain Enterococcus 29212 (ATCC). As to the kind of experiment: Microfluidic system of Embodiment 1 antibiotic susceptibility testing (Test 1). Conditions: for MIC: Enterococcus. The assay is classed as cell-based, E. faecalis.
Source text: In Test 1, a standard strain Enterococcus 29212, which includes E. faecalis and is purchased from American type culture collection (ATCC), is designed as a bacterial suspension to be tested. […] In particular, the antibiotic solution of Test 1 is a vancomycin-containing solution.
As to the determination of the minimum inhibitory concentration, a quantitative dye can be added into each of the first reaction chamber 122, the second reaction chamber 124a, the second reaction chamber 124b, the second reaction chamber 124c, and the second reaction chamber 124d as mentioned above. After few minutes, an upright fluorescent microscope is applied for determining fluorescent staining results as shown in FIG. 8. In details, the fluorescent staining results of the first mixing solution and each of the second mixing solutions (that is, the concentration of the antibiotic solution is 0 μg/mL, 2 μg/mL, 4 μg/mL, 6 μg/mL and 8 μg/mL, respectively) are shown, separately, from FIG. 8 (a) to FIG. 8 (e).
Alternatively, a proper pH indicator, such as phenol red, also can be added to the broth as a determination method. In details, a pH-dependent colorimetric broth, which includes brain heart infusion (BHI) media supplemented with 1% glucose and 0.05% phenol red, and antibiotics, are loaded. Then, the standard strain Enterococcus 29212 is loaded as the bacteria suspension to be tested herein for the antibiotic susceptibility testing. […] In particular, incubation times from FIG. 9(a) to FIG. 9(f) are 0 hour, 4 hours, 10 hours, 20 hours, 23 hours, and 24 hours.
The pH-dependent colorimetric broth will be transformed into an acidic pH due to bacterial growth, and the phenol red can be visually observed through color change from red to yellow.
Assay [3] deals with E. gallinarum (vanC1). As to the kind of experiment: E-Test MIC, vancomycin-resistant Enterococcus vanC1 (Test 4). The assay is classed as cell-based. The conditions noted are these: incubation time 24 hours. The method, then:
In Test 4, the antibiotic solution, the dilution mode and the operation of the microfluidic system are the as Test 1. However, a bacterial suspension to be tested of Test 4 is the bacterial suspension containing E. gallinarum (vancomycin-resistant Enterococcus). In particular, a genotype of the vancomycin-resistant Enterococcus in Test 4 is vanC1, and a minimum inhibitory concentration thereof is determined by the conventional method (E-Test®) to be 3 μg/mL. The incubation time and the determined minimum inhibitory concentration of E. gallinarum (vanC1) in Test 4 are listed in Table 1.

The subject of assay [4] is E. faecium (vanB). As to the kind of experiment: Microfluidic system of Embodiment 1 antibiotic susceptibility testing (Test 3). Type of assay: cell-based. The conditions noted are these: Enterococcus faecium, incubation time 19 hours. The method, then: (§1) Briefly, five different concentrations of antibiotic solutions (0 μg/mL, 2 μg/mL, 4 μg/mL, 6 μg/mL, and 8 μg/mL) are prepared, separately, by the microfluidic system of Embodiment 1 of the present disclosure with the proportional dilution mode. Then, the antibiotic solutions are mixed with the bacteria suspensions at a final concentration of 5×10^5 CFU/mL. The determination of the minimum inhibitory concentration is read after incubation at 37° C. for 24 hours.
(§2) Alternatively, a proper pH indicator, such as phenol red, also can be added to the broth as a determination method. In details, a pH-dependent colorimetric broth, which includes brain heart infusion (BHI) media supplemented with 1% glucose and 0.05% phenol red, and antibiotics, are loaded. Then, the standard strain Enterococcus 29212 is loaded as the bacteria suspension to be tested herein for the antibiotic susceptibility testing. Please refer to FIG. 9, which is colorimetric results of the antibiotic susceptibility testing of the standard strain Enterococcus 29212 diluted by the microfluidic chip of FIG. 1. […]
In Test 3, the antibiotic solution, the dilution mode and the operation of the microfluidic system are the as Test 1. […] In particular, a genotype of the vancomycin-resistant Enterococcus in Test 3 is vanB, and a minimum inhibitory concentration thereof is determined by the conventional method (E-Test®) to be 8 μg/mL.

Assay [5] relates to E. faecium (vanB). Kind of assay: E-Test MIC, vancomycin-resistant Enterococcus vanB (Test 3). The assay is classed as cell-based. The conditions noted are these: incubation time 24 hours. The method, then: In Test 3, the antibiotic solution, the dilution mode and the operation of the microfluidic system are the as Test 1. However, a bacterial suspension to be tested of Test 3 is the bacterial suspension containing E. faecium (vancomycin-resistant Enterococcus). In particular, a genotype of the vancomycin-resistant Enterococcus in Test 3 is vanB, and a minimum inhibitory concentration thereof is determined by the conventional method (E-Test®) to be 8 μg/mL.

For assay [6], the system named is standard strain Enterococcus 29212 (ATCC). Kind of assay: E-Test MIC, standard strain Enterococcus 29212 (Test 1). The assay is classed as cell-based, E. faecalis. Conditions: incubation time 24 hours. On the procedure:
In Test 1, a standard strain Enterococcus 29212, which includes E. faecalis and is purchased from American type culture collection (ATCC), is designed as a bacterial suspension to be tested. The standard strain Enterococcus 29212 is susceptible Enterococcus, and a minimum inhibitory concentration of the standard strain Enterococcus 29212 detected by a clinical standard (i.e., E-Test®) is 4 μg/mL. In particular, the antibiotic solution of Test 1 is a vancomycin-containing solution.

The test system of assay [7] is E. gallinarum (vanC1). Kind of assay: Microfluidic system of Embodiment 1 antibiotic susceptibility testing (Test 4). The assay is classed as cell-based. The conditions noted are these: Enterococcus gallinarum, incubation time 16 hours. The method, then:
as §1
(§3) Alternatively, a proper pH indicator, such as phenol red, also can be added to the broth as a determination method. In details, a pH-dependent colorimetric broth, which includes brain heart infusion (BHI) media supplemented with 1% glucose and 0.05% phenol red, and antibiotics, are loaded. Then, the standard strain Enterococcus 29212 is loaded as the bacteria suspension to be tested herein for the antibiotic susceptibility testing. […]
In Test 4, the antibiotic solution, the dilution mode and the operation of the microfluidic system are the as Test 1. […] In particular, a genotype of the vancomycin-resistant Enterococcus in Test 4 is vanC1, and a minimum inhibitory concentration thereof is determined by the conventional method (E-Test®) to be 3 μg/mL. The incubation time and the determined minimum inhibitory concentration of E. gallinarum (vanC1) in Test 4 are listed in Table 1.

Assay [8] deals with E. faecium (vanA). As to the kind of experiment: Microfluidic system of Embodiment 1 antibiotic susceptibility testing (Test 2). The assay is classed as cell-based. Conditions: Enterococcus faecium, incubation time 24 hours. On the procedure:
as §1, §2
In Test 2, the antibiotic solution, the dilution mode and the operation of the microfluidic system are the as Test 1. […] In particular, a genotype of the vancomycin-resistant Enterococcus in Test 2 is vanA, and a minimum inhibitory concentration thereof is determined by the conventional method (E-Test®) to be 32 μg/mL.

Assay [9] relates to E. faecium (vanA). Kind of assay: E-Test MIC, vancomycin-resistant Enterococcus vanA (Test 2). The conditions noted are these: incubation time 24 hours. The assay is classed as cell-based. The method, then:
In Test 2, the antibiotic solution, the dilution mode and the operation of the microfluidic system are the as Test 1. However, a bacterial suspension to be tested of Test 2 is the bacterial suspension containing E. faecium (vancomycin-resistant Enterococcus). In particular, a genotype of the vancomycin-resistant Enterococcus in Test 2 is vanA, and a minimum inhibitory concentration thereof is determined by the conventional method (E-Test®) to be 32 μg/mL.

Assay [10] deals with E. casseliflavus (vanC2). Kind of assay: Microfluidic system of Embodiment 1 antibiotic susceptibility testing (Test 5). The assay is classed as cell-based. Conditions: Enterococcus casseliflavus, incubation time 17 hours. The method, then: as §1, §3
In Test 5, the antibiotic solution, the dilution mode and the operation of the microfluidic system are the as Test 1. […] In particular, a genotype of the vancomycin-resistant Enterococcus in Test 4 is vanC2, and a minimum inhibitory concentration thereof is determined by the conventional method (E-Test®) to be 4 μg/mL. The incubation time and the determined minimum inhibitory concentration of E. casseliflavus (vanC2) in Test 5 are listed in Table 1.

Assay [11] deals with E. casseliflavus (vanC2). Kind of assay: E-Test MIC, vancomycin-resistant Enterococcus vanC2 (Test 5). The assay is classed as cell-based. Conditions: 24 h, read-out: MIC (E-test). The method, then:
In Test 5, the antibiotic solution, the dilution mode and the operation of the microfluidic system are the as Test 1. However, a bacterial suspension to be tested of Test 5 is the bacterial suspension containing E. casseliflavus (vancomycin-resistant Enterococcus). In particular, a genotype of the vancomycin-resistant Enterococcus in Test 4 is vanC2, and a minimum inhibitory concentration thereof is determined by the conventional method (E-Test®) to be 4 μg/mL. The incubation time and the determined minimum inhibitory concentration of E. casseliflavus (vanC2) in Test 5 are listed in Table 1.

In brackets after ≈: the same amount, converted by molar mass. Some results are limits rather than exact numbers.

`CC(C)(O/N=C(\C(=O)N[C@@H]1C(=O)N2C(C(=O)[O-])=C(C[n+]3ccccc3)CS[C@H]12)c1csc(N)n1)C(=O)O` [ceftazidime]: in assay [1], the “minimum inhibitory concentration alone (denominator of the FIC equation)” value is greater than 256 and the “minimum inhibitory concentration in combination (vancomycin + ceftazidime)” value was found to be 2 µg/mL.
Turning to `CN[C@H](CC(C)C)C(=O)N[C@H]1C(=O)N[C@@H](CC(N)=O)C(=O)N[C@H]2C(=O)N[C@H]3C(=O)N[C@H](C(=O)N[C@H](C(=O)O)c4cc(O)cc(O)c4-c4cc3ccc4O)[C@H](O)c3ccc(c(Cl)c3)Oc3cc2cc(c3O[C@@H]2O[C@H](CO)[C@@H](O)[C@H](O)[C@H]2O[C@H]2C[C@](C)(N)[C@H](O)[C@H](C)O2)Oc2ccc(cc2Cl)[C@H]1O` [vancomycin], the “susceptibility of the strain according to the CLSI guidelines” value in [2] is “susceptible”. The MIC turned out to be 4 µg/mL (≈ 2.76 µM) in assay [2] (37° C. for 24 hours, live bacteria green fluorescence, read-out: minimum inhibitory concentration by fluorescent staining); 4 µg/mL (≈ 2.76 µM) in assay [2] (colorimetric (phenol red), incubation time 20 hours, read-out: MIC (Microfluidic system of Embodiment 1)); 3 µg/mL (≈ 2.07 µM) against E. gallinarum (vanC1) [3]; 4 µg/mL (≈ 2.76 µM) in the assay with E. faecium (vanB) [4]; 8 µg/mL (≈ 5.52 µM) in the assay on E. faecium (vanB) [5]; 4 µg/mL (≈ 2.76 µM) in [6]. Also, the MIC with E. gallinarum (vanC1) [7] was 4 µg/mL (≈ 2.76 µM); with E. faecium (vanA) [8], greater than 16 µg/mL; in the assay on E. faecium (vanA) [9], 32 µg/mL (≈ 22.1 µM); with E. casseliflavus (vanC2) [10], 6 µg/mL (≈ 4.14 µM); with E. casseliflavus (vanC2) [11], 4 µg/mL (≈ 2.76 µM). Further, in assay [2] (colorimetric (phenol red), incubation time 20 hours), the “MIC (Microfluidic system of Embodiment 1)” value came out at 4 ± 0 µg/mL. For the same molecule, the “minimum inhibitory concentration alone (denominator of the FIC equation)” value in [1] was 3. In addition, in assay [1], the “minimum inhibitory concentration in combination (vancomycin + ceftazidime)” value is 4 µg/mL.
